Measured values: ChEMBL document CHEMBL3124875, “A facile access to novel steroidal 17-2'-(1',3',4')-oxadiazoles, and an evaluation of their cytotoxic activities in vitro” (Bioorg Med Chem Lett, 2014)
pIC50: −log10 of the molar value.

Assays:
HeLa [1] = experiment: Cytotoxicity against human HeLa cells at 30 uM after 72 hrs by MTT assay; assay type: functional
A2780 [2] = experiment: Cytotoxicity against human A2780 cells at 30 uM after 72 hrs by MTT assay; assay type: functional; settings: A2780, 72 h
A-431 [3] = experiment: Cytotoxicity against human A431 cells at 10 uM after 72 hrs by MTT assay; assay type: functional; settings: A-431, 72 h
A2780 [4] = experiment: Cytotoxicity against human A2780 cells at 10 uM after 72 hrs by MTT assay; assay type: functional; settings: A2780, 72 h
MCF7 [5] = experiment: Cytotoxicity against human MCF7 cells at 10 uM after 72 hrs by MTT assay; assay type: functional; settings: MCF7, 72 h
HeLa [6] = experiment: Cytotoxicity against human HeLa cells at 10 uM after 72 hrs by MTT assay; assay type: functional
A-431 [7] = experiment: Cytotoxicity against human A431 cells at 30 uM after 72 hrs by MTT assay; assay type: functional; settings: A-431, 72 h
MCF7 [8] = experiment: Cytotoxicity against human MCF7 cells at 30 uM after 72 hrs by MTT assay; assay type: functional; settings: MCF7, 72 h
A-431 [9] = experiment: Cytotoxicity against human A431 cells after 72 hrs by MTT assay; assay type: functional, cell-based; settings: A-431, 72 h
HeLa [10] = experiment: Cytotoxicity against human HeLa cells after 72 hrs by MTT assay; assay type: functional, cell-based
A2780 [11] = experiment: Cytotoxicity against human A2780 cells after 72 hrs by MTT assay; assay type: functional, cell-based; settings: A2780, 72 h
MCF7 [12] = experiment: Cytotoxicity against human MCF7 cells after 72 hrs by MTT assay; assay type: functional, cell-based; settings: MCF7, 72 h

Row | Compound | inhibition at 30 µM (HeLa [1]) | inhibition at 30 µM (A2780 [2]) | inhibition at 10 µM (A-431 [3]) | inhibition at 10 µM (A2780 [4]) | inhibition at 10 µM (MCF7 [5]) | inhibition at 10 µM (HeLa [6]) | inhibition at 30 µM (A-431 [7]) | inhibition at 30 µM (MCF7 [8]) | pIC50 (A-431 [9]) | pIC50 (HeLa [10]) | pIC50 (A2780 [11]) | pIC50 (MCF7 [12])
1 | CC(=O)O[C@H]1CC[C@@]2(C)C(=CC[C@H]3[C@@H]4CC[C@H]([C@@H]5OC(c6ccccc6)=NN5C(C)=O)[C@@]4(C)CC[C@@H]32)C1 | 23% | 40.3% | < 20% | < 20% | < 20% | < 20% | 30.6% | < 20% | – | – | – | –
2 | C[C@]12CC[C@H]3[C@@H](CC=C4C[C@@H](O)CC[C@@]43C)[C@@H]1CC[C@@H]2c1nnc(-c2ccccc2)o1 | 80.7% | 38.7% | 68% | 29.2% | 31.6% | 77.4% | 69.9% | 35.3% | 5.72 | 5.77 | – | –
3 | C[C@]12CC[C@H]3[C@@H](CC=C4C[C@@H](O)CC[C@@]43C)[C@@H]1CC[C@@H]2c1nnc(-c2cccnc2)o1 | 74.2% | 33.3% | 60.3% | 31.9% | 41.6% | 71.7% | 65.4% | 45.5% | 5.17 | 5.32 | – | –
4 | C[C@]12CC[C@H]3[C@@H](CC=C4C[C@@H](O)CC[C@@]43C)[C@@H]1CC[C@@H]2c1nnc(-c2ccco2)o1 | 77.5% | 37% | 66.6% | 37.5% | 42% | 74.9% | 69.2% | 46.6% | 5.74 | 5.81 | – | –
5 | CC(=O)O[C@H]1CC[C@@]2(C)C(=CC[C@H]3[C@@H]4CC[C@H](c5nnc(-c6ccccc6)o5)[C@@]4(C)CC[C@@H]32)C1 | 57.4% | 52% | < 20% | < 20% | 22.6% | < 20% | 59.1% | 41.5% | 4.59 | 4.53 | 4.54 | –
6 | CC(=O)O[C@H]1CC[C@@]2(C)C(=CC[C@H]3[C@@H]4CC[C@H](c5nnc(-c6cccnc6)o5)[C@@]4(C)CC[C@@H]32)C1 | 65.8% | 48.2% | < 20% | 22.8% | 21.8% | 22.5% | 60.8% | 55.7% | 4.63 | 4.68 | – | 4.58
7 | CC(=O)O[C@H]1CC[C@@]2(C)C(=CC[C@H]3[C@@H]4CC[C@H](c5nnc(-c6ccco6)o5)[C@@]4(C)CC[C@@H]32)C1 | 48.2% | 43.5% | < 20% | 24.1% | 26.1% | 27.5% | 25.9% | 45.3% | – | – | – | –
8 | C[C@]12CC[C@H]3[C@@H](CC=C4C[C@@H](O)CC[C@@]43C)[C@@H]1CC[C@@H]2/C=N/NC(=O)c1ccccc1 | 90.4% | 60.9% | < 20% | 32.6% | < 20% | 72.2% | 38.1% | 48% | – | 5.33 | 4.69 | –
9 | C[C@]12CC[C@H]3[C@@H](CC=C4C[C@@H](O)CC[C@@]43C)[C@@H]1CC[C@@H]2/C=N/NC(=O)c1cccnc1 | 90.9% | 66.4% | 40.1% | 23.5% | < 20% | 80.5% | 71.8% | 82.9% | 4.89 | 5.26 | 4.95 | 4.72
10 | C[C@]12CC[C@H]3[C@@H](CC=C4C[C@@H](O)CC[C@@]43C)[C@@H]1CC[C@@H]2/C=N/NC(=O)c1ccco1 | 91.2% | 46.4% | 24.9% | 21.1% | 21.1% | 78% | 26.1% | 53.2% | – | 5.25 | – | 4.55
11 | CC(=O)O[C@H]1CC[C@@]2(C)C(=CC[C@H]3[C@@H]4CC[C@H](/C=N/NC(=O)c5ccccc5)[C@@]4(C)CC[C@@H]32)C1 | 90.2% | 89.2% | 45.1% | 44.3% | < 20% | 71.2% | 45.5% | 44.4% | – | 5.30 | 4.94 | –
12 | CC(=O)O[C@H]1CC[C@@]2(C)C(=CC[C@H]3[C@@H]4CC[C@H](/C=N/NC(=O)c5cccnc5)[C@@]4(C)CC[C@@H]32)C1 | 88% | 84.3% | 37.1% | 27.8% | < 20% | 65.8% | 37% | 28.7% | – | 5.19 | 4.78 | –
13 | CC(=O)O[C@H]1CC[C@@]2(C)C(=CC[C@H]3[C@@H]4CC[C@H](/C=N/NC(=O)c5ccco5)[C@@]4(C)CC[C@@H]32)C1 | 91.2% | 70.5% | 39% | 26.2% | 26.7% | 77.8% | 40.4% | 55.1% | – | 5.16 | 4.95 | 4.92
14 | CC(=O)O[C@H]1CC[C@@]2(C)C(=CC[C@H]3[C@@H]4CC[C@H]([C@H]5OC(c6ccccc6)=NN5C(C)=O)[C@@]4(C)CC[C@@H]32)C1 | 71.3% | 53.5% | 22.7% | 20.2% | < 20% | < 20% | 41.7% | 26.7% | – | 4.67 | 4.56 | –
